Assay results taken from patent US20260191961A1, “RUTHENIUM (II) POLYPYRIDYL COMPLEX AS A PHOTO-SENSITISER IN PHOTODYNAMIC THERAPY, AND A PROCEDURE FOR MAKING SAID RUTHENIUM (II) POLYPYRIDYL COMPLEX” (UNIVERSITÀ DEGLI STUDI DI FIRENZE, priority 2022, published 2026).
Read-outs that look alike come from different tables or passages of the source.

Assays:
[1] = DHN assay (indirect UV-visible probe for 1O2); assay type: physicochemical; details: acetonitrile, LED 400-500 nm; for kobs, rate constant of the DHN photo-oxidation process: [DHN]=330 μM, [Ru]=10 μM; for Φ1O2 (b) singlet oxygen quantum yield: indirect UV-visible measurements with DHN probe, standard [Ru(phen)3]Cl2
Procedure: A confirmation of the production of singlet oxygen (^1O2) with such a high quantum yields by the three IIIa-c molecular systems was obtained using 1,5-dihydroxynaphthalene (DHN) as an indirect chemical probe for ^1O2 and [Ru(phen)3]Cl2 as a commercial standard. In the DHN assay, the probe is selectively and quantitatively oxidised in the presence of ^1O2 to give the corresponding photo-oxidation product 5-hydroxy-1,4-naphthalenedione (Juglone). The production of ^1O2 was assessed by monitoring the decrease in the DHN absorption band at λ=297 nm and the corresponding increase in the Juglone band at λ=427 nm. […] On this basis, the quantum yield of formation of ^1O2 can be obtained via the equation
where φΔ are the quantum yields of ^1O2 production from the photosensitising agents, k are the rate constants obtained from the DHN assays, labs represents the absolute value for the integration of the absorption of the photosensitising agents in the spectral emission region of the LED lamp (400 nm to 500 nm), and the subscript ST indicates the commercial standard [Ru(phen)3]Cl2.

[2] = test system: glioblastoma multiforme (U87MG); experiment: In-vitro photo-cytotoxicity, MTT assay, U87MG; assay type: cell-based; details: 1 h incubation, MTT after 24 h, read-out: IC50 (maximum response set to zero)
Procedure: (§1) The activity of compound IIIa as a photosensitising agent in photodynamic therapy was evaluated on two in-vitro tumour models: squamous cell carcinoma of the epidermis (A431) and glioblastoma multiforme (U87MG). Cells cultured on 96-well plates were treated with increasing concentrations of IIIa dispersed in the culture medium for one hour. At the end of the incubation, the medium was replaced, and the cells were exposed to LED light (λmax 462 nm) for 30 minutes, or were left in the dark during the same time. At the end of the 30 minutes, the cells were placed back and maintained in the incubator for 24 hours before measuring the metabolic activity by MTT assay. Six replicates were used for each condition, and cell viability of 100% was calculated from the response of untreated cells not exposed to LED light. […] The high specificity of IIIa, defined as toxicity only when exposed to light, is evident from the difference in IC50 values, which indicate a potent cytotoxic activity in the presence of light irradiation and substantial inertia in the dark at the concentrations tested, as shown in Table 3.

[3] = Singlet oxygen quantum yield by direct 1O2 phosphorescence at 1270 nm; assay type: physicochemical; details: acetonitrile; direct phosphorescence signal of 1O2 at 1270 nm; reference [Ru(phen)3Cl2]
Procedure: The capacity of complexes IIIa-c to efficiently generate singlet oxygen (^1O2) upon irradiation with light is a key factor in the evaluation of their potential as photosensitising agents for applications in photodynamic therapy. In this connection, the singlet oxygen quantum yields of complexes IIIa-c were determined by means of direct phosphorescence signal of ^1O2 at 1270 nm generated by irradiation of acetonitrile solutions of the complexes and using dichlorotris(1,10-phenanthroline)ruthenium (II) chloride ([Ru(phen)3Cl2]) as a standard reference. A Horiba FluoroMax Plus spectrofluorometer was used for these measurements.

[4] = test system: squamous cell carcinoma of the epidermis (A431); experiment: In-vitro photo-cytotoxicity, MTT assay, A431; assay type: cell-based; details: 1 h incubation, MTT after 24 h, read-out: IC50 (maximum response set to zero)
Procedure: as §1
The activity of compound IIIb as a photosensitising agent in photodynamic therapy was evaluated on an in vitro tumour model, i.e., squamous cell carcinoma of the epidermis (A431), following the same protocol as compound IIIa. […] The high specificity of IIIb, defined as toxicity only when exposed to light, is evident from the difference in IC50 values, which indicate a potent cytotoxic activity in the presence of light irradiation and substantial inertia in the dark at test concentrations, see Table 4.
The activity of compound IIIb encapsulated in cubosomes as a photosensitising agent in photodynamic therapy was evaluated on an in vitro tumour model: squamous cell carcinoma of the epidermis (A431), following the same protocol as compound IIIa and IIIb as such. […] However, the incorporation into a delivery system can bring numerous benefits, including increased distribution in the tumour after in vivo administration, increased stability and solubility, and improved crossing of biological barriers.

[5] = test system: Methastatic Lung Adenocarcinoma (Calu-3); experiment: In-vitro photo-cytotoxicity, MTT assay, Calu-3; assay type: cell-based; details: read-out: IC50 (maximum response set to zero)
Procedure: The activity of compound IIIa as a photosensitising agent in photodynamic therapy was evaluated on two in-vitro tumour models: squamous cell carcinoma of the epidermis (A431) and glioblastoma multiforme (U87MG). Cells cultured on 96-well plates were treated with increasing concentrations of IIIa dispersed in the culture medium for one hour. At the end of the incubation, the medium was replaced, and the cells were exposed to LED light (λmax 462 nm) for 30 minutes, or were left in the dark during the same time. At the end of the 30 minutes, the cells were placed back and maintained in the incubator for 24 hours before measuring the metabolic activity by MTT assay. Six replicates were used for each condition, and cell viability of 100% was calculated from the response of untreated cells not exposed to LED light. […]
The activity of compound IIIc as a photosensitising agent in photodynamic therapy was evaluated on an in-vitro tumour model, Methastatic Lung Adenocarcinoma (Calu-3), following the same protocol as compounds IIIa and IIIb. […]
The activity of compound IIIc encapsulated in cubosomes as a photosensitising agent in photodynamic therapy was evaluated on an in vitro tumour model: Methastatic Lung Adenocarcinoma (Calu-3), following the same protocol as compound IIIa and IIIb. […]

[6] = value of the commercial standard used for the calculation; cited from earlier work
[7] = 30′ LED light exposure (λmax 462 nm)

Compound	kobs, rate constant of the DHN photo-oxidation process [1]	Φ1O2 (b) singlet oxygen quantum yield [1]	IC50 [2, 7] [nM]	IC50 ([2]; in the dark) [nM]	Φ1O2 (a) singlet oxygen quantum yield [3]	IC50 [4, 7] [nM]	IC50 ([4]; in the dark) [nM]	IC50 ([5]; 30′ LED light exposure) [nM]	IC50 ([5]; in the dark) [nM]	standard quantum yield of 1O2 production [6]
Cc1ccnc(-c2cc(C)ccn2)c1.F[P-](F)(F)(F)(F)F.F[P-](F)(F)(F)(F)F.[Ru+2].c1ccc2cc3nc4c5cccnc5c5ncccc5c4nc3cc2c1.c1ccc2cc3nc4c5cccnc5c5ncccc5c4nc3cc2c1 [Complex IIIa]	1.85×10^−3	0.44	164	> 40000	0.54 ± 0.06	25.3	> 40000	–	–	–
O=C([O-])c1ccnc(-c2cc(C(=O)[O-])ccn2)c1.[Ru+2].c1ccc2cc3nc4c5cccnc5c5ncccc5c4nc3cc2c1.c1ccc2cc3nc4c5cccnc5c5ncccc5c4nc3cc2c1 [Complex IIIb, [Ru(4,4′-dicarboxylate-2,2′-bipyridine)(benzo[i]dipyrido[3,2-a:2′,3′-c]phenazine)2]]	2.71×10^−3	0.47	–	–	0.50 ± 0.07	191	> 40000	–	–	–
F[P-](F)(F)(F)(F)F.F[P-](F)(F)(F)(F)F.O=C(c1ccnc(-c2cc(C(=O)N3CCOCC3)ccn2)c1)N1CCOCC1.[Ru+2].c1ccc2cc3nc4c5cccnc5c5ncccc5c4nc3cc2c1.c1ccc2cc3nc4c5cccnc5c5ncccc5c4nc3cc2c1 [Complex IIIc]	1.83×10^−3	0.42	–	–	0.54 ± 0.6	–	–	63.9	> 40000	–
[Cl][Ru][Cl].c1cnc2c(c1)ccc1cccnc12.c1cnc2c(c1)ccc1cccnc12.c1cnc2c(c1)ccc1cccnc12 [[Ru(phen)3]Cl2, dichlorotris(1,10-phenanthroline)ruthenium (II) chloride, reference compound]	9.41×10^−4	–	–	–	–	–	–	–	–	0.38
